Among the data in patent publication US10933063B2 (priority 2017, dated 2021) are IC50 values, retold here.

For the assay, the target named is BTK (Homo sapiens (Human), UniProt Q06187). The following applies: read-out: BTK Inhibition.
BTK, sequence (Q06187 whole entry, looked up, species assumed): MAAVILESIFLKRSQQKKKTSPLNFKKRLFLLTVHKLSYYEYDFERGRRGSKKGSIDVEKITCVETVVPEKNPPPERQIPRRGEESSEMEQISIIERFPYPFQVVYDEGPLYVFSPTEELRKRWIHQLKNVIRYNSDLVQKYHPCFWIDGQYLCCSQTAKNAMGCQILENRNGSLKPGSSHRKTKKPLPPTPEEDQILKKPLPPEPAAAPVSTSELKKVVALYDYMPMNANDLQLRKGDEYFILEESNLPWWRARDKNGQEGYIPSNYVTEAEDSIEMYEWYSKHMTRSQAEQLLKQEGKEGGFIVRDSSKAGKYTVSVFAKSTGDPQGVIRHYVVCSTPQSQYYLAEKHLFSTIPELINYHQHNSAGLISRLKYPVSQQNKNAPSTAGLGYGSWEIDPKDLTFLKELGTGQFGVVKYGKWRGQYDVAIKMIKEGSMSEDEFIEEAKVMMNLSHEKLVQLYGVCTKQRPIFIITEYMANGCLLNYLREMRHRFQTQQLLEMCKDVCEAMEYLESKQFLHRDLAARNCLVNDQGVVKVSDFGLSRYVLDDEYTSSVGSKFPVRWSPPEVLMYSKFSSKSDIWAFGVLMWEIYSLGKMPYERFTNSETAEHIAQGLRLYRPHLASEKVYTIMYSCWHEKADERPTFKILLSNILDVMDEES

Experimental: Btk kinase activity was determined using a homogenous time resolved fluorescence (HTRF) methodology. Measurements were performed in a reaction volume of 15 μL using 384-well assay plates. Kinase enzyme, inhibitor, ATP and 1 μM peptide substrate were incubated in a reaction buffer compose of Hepes50 mM (pH7.0), NaN3 0.02%, BSA 0.01%, Orthocanadate 0.1 mM. […] For each compound, enzyme activity as measured at various concentrations of compound, Negative control reactions were performed in the absence of inhibitor in two replicates and eight no enzyme controls were used to determine baseline fluorescence levels.

Regarding `CC#CC(=O)N1CC[C@@H](c2nc(-c3ccc(Oc4cccc(OC)c4F)cc3)c3cncc(OC)n23)C1` [Example 86, (R)-1-(3-(1-(4-(2-fluoro-3-methoxyphenoxy)phenyl)-5-methoxyimidazo[1,5-a]pyrazin-3-yl)pyrrolidin-1-yl)but-2-yn-1-one], the IC50 is less than 10 nM.
Regarding `C=CC(=O)N1CC[C@@H](c2nc(-c3ccc(Oc4cccc(OC)c4F)cc3)c3cncc(OCCN(C)C)n23)C1` [Example 89, (R)-1-(3-(5-(2-(dimethylamino)ethoxy)-1-(4-(2-fluoro-3-methoxyphenoxy)phenyl)imidazo[1,5-a]pyrazin-3-yl)pyrrolidin-1-yl)prop-2-en-1-one], the IC50 was less than 10 nM.
On to `CC#CC(=O)N1CC[C@@H](c2nc(-c3ccc(Oc4cccc(OC)c4F)cc3)c3c(C)nccn23)C1` [Example 92, (R)-1-(3-(1-(4-(2-fluoro-3-methoxyphenoxy)phenyl)-8-methylimidazo[1,5-a]pyrazin-3-yl)pyrrolidin-1-yl)but-2-yn-1-one], for which the IC50 was less than 10 nM.
Consider `CC#CC(=O)N1CC[C@@H](c2nc(-c3ccc(Oc4cccc(OC)c4F)cc3)c3cncc(OCC)n23)C1` [Example 93, (R)-1-(3-(5-ethoxy-1-(4-(2-fluoro-3-methoxyphenoxy)phenyl)imidazo[1,5-a]pyrazin-3-yl)pyrrolidin-1-yl)but-2-yn-1-one], for which the IC50 is less than 10 nM.
In the case of `C=CC(=O)N1CC[C@@H](c2nc(-c3ccc(Oc4cccc(OC)c4F)cc3)c3cncc(OCC)n23)C1` [Example 94, (R)-1-(3-(5-ethoxy-1-(4-(2-fluoro-3-methoxyphenoxy)phenyl)imidazo[1,5-a]pyrazin-3-yl)pyrrolidin-1-yl)prop-2-en-1-one] it was less than 10 nM.
In the case of `C=CC(=O)N1CC[C@@H](c2nc(-c3ccc(Oc4cccc(OC)c4F)cc3)c3cncc(OCCC)n23)C1` [Example 95, (R)-1-(3-(1-(4-(2-fluoro-3-methoxyphenoxy)phenyl)-5-propoxyimidazo[1,5-a]pyrazin-3-yl)pyrrolidin-1-yl)prop-2-en-1-one] it was less than 10 nM.
Take `CC#CC(=O)N1CC[C@@H](c2nc(-c3ccc(Oc4cccc(OC)c4F)cc3)c3cncc(OCCC)n23)C1` [Example 96, (R)-1-(3-(1-(4-(2-fluoro-3-methoxyphenoxy)phenyl)-5-propoxyimidazo[1,5-a]pyrazin-3-yl)pyrrolidin-1-yl)but-2-yn-1-one]: the IC50 is less than 10 nM.
As to `CC#CC(=O)N1CC[C@@H](c2nc(-c3ccc(Oc4cccc(OC)c4F)cc3)c3cncc(OCCCC)n23)C1` [Example 97, (R)-1-(3-(5-butoxy-1-(4-(2-fluoro-3-methoxyphenoxy)phenyl)imidazo[1,5-a]pyrazin-3-yl)pyrrolidin-1-yl)but-2-yn-1-one], the IC50 is less than 10 nM.
In the case of `C=CC(=O)N1CC[C@@H](c2nc(-c3ccc(Oc4cccc(OC)c4F)cc3)c3cncc(OC4CCOC4)n23)C1` (stereo partly drawn) [Example 98, 1-((3R)-3-(1-(4-(2-fluoro-3-methoxyphenoxy)phenyl)-5-((tetrahydrofuran-3-yl)oxy)imidazo[1,5-a]pyrazin-3-yl)pyrrolidin-1-yl)prop-2-en-1-one], the IC50 was less than 10 nM.
In the case of `C=CC(=O)N1CC[C@@H](c2nc(-c3ccc(Oc4cccc(OC)c4F)cc3)c3cncc(OC4CCC4)n23)C1` [Example 100, (R)-1-(3-(5-cyclobutoxy-1-(4-(2-fluoro-3-methoxyphenoxy)phenyl)imidazo[1,5-a]pyrazin-3-yl)pyrrolidin-1-yl)prop-2-en-1-one] it was less than 10 nM; in that of `CCCCOc1cncc2c(-c3ccc(Oc4cccc(OC)c4F)cc3)nc([C@@H]3CCN(Cc4ccccc4)C3)n12` [Example 102, (R)-3-(1-benzylpyrrolidin-3-yl)-5-butoxy-1-(4-(2-fluoro-3-methoxyphenoxy)phenyl)imidazo[1,5-a]pyrazine], more than 10000 nM; in that of `C=CC(=O)N1CC[C@@H](c2nc(-c3ccc(Oc4cccc(OC)c4F)cc3)c3cncc(OCCOC)n23)C1` [Example 104, (R)-1-(3-(1-(4-(2-fluoro-3-methoxyphenoxy)phenyl)-5-(2-methoxyethoxy)imidazo[1,5-a]pyrazin-3-yl)pyrrolidin-1-yl)prop-2-en-1-one], less than 10 nM.
In the case of `COc1cccc(Oc2ccc(-c3nc([C@@H]4CCN(C(=O)/C=C/CN(C)C5CC5)C4)n4ccnc(C)c34)cc2)c1F` [Example 105, (R,E)-4-(cyclopropyl(methyl)amino)-1-(3-(1-(4-(2-fluoro-3-methoxyphenoxy)phenyl)-8-methylimidazo[1,5-a]pyrazin-3-yl)pyrrolidin-1-yl)but-2-en-1-one], the IC50 is less than 10 nM.
Turning to `C=CC(=O)N1CC[C@@H](c2nc(-c3ccc(Oc4cccc(OC)c4F)cc3)c3c(CC)nccn23)C1` [Example 106, (R)-1-(3-(8-ethyl-1-(4-(2-fluoro-3-methoxyphenoxy)phenyl)imidazo[1,5-a]pyrazin-3-yl)pyrrolidin-1-yl)prop-2-en-1-one], the IC50 is less than 10 nM.
In the case of `CC#CC(=O)N1CC[C@@H](c2nc(-c3ccc(Oc4cccc(OC)c4F)cc3)c3c(C(N)=O)nccn23)C1` [Example 108, (R)-3-(1-(but-2-ynoyl)pyrrolidin-3-yl)-1-(4-(2-fluoro-3-methoxyphenoxy)phenyl)imidazo[1,5-a]pyrazine-8-carboxamide] it was more than 10000 nM; in that of `CC#CC(=O)N1CC[C@@H](c2nc(-c3ccc(Oc4cccc(OC)c4F)cc3)c3c(C(C)C)nccn23)C1` [Example 112, (R)-1-(3-(1-(4-(2-fluoro-3-methoxyphenoxy)phenyl)-8-isopropylimidazo[1,5-a]pyrazin-3-yl)pyrrolidin-1-yl)but-2-yn-1-one], more than 10000 nM.
As for `CC#CC(=O)N1CC[C@@H](c2nc(-c3ccc(Oc4cccc(OC)c4F)cc3)c3c(OC)nccn23)C1` [Example 116, (R)-1-(3-(1-(4-(2-fluoro-3-methoxyphenoxy)phenyl)-8-methoxyimidazo[1,5-a]pyrazin-3-yl)pyrrolidin-1-yl)but-2-yn-1-one], the IC50 is more than 10000 nM.
On to `CC#CC(=O)N1CCCC[C@H]1c1nc(-c2ccc(Oc3cccc(OC)c3F)cc2)c2c(C(F)(F)F)nccn12` [Example 122, (S)-1-(2-(1-(4-(2-fluoro-3-methoxyphenoxy)phenyl)-8-(trifluoromethyl)imidazo[1,5-a]pyrazin-3-yl)piperidin-1-yl)but-2-yn-1-one], for which the IC50 is more than 10000 nM.
In the case of `C=CC(=O)N1CCCC[C@H]1c1nc(-c2ccc(C(=O)Nc3ccccn3)cc2)c2c(C)nccn12` [Example 170, (S)-4-(3-(1-acryloylpiperidin-2-yl)-8-methylimidazo [1,5-a]pyrazin-1-yl)-N-(pyridin-2-yl)benzamide] it was less than 10 nM; in that of `C=CC(=O)N1CCC[C@H]1c1nc(-c2ccc(C(=O)Nc3ccccn3)cc2)c2c(C)ncc(C)n12` [Example 174, (S)-4-(3-(1-acryloylpyrrolidin-2-yl)-5,8-dimethylimidazo [1,5-a]pyrazin-1-yl)-N-(pyridin-2-yl)benzamide], less than 10 nM.
As to `C=CC(=O)N1CCC[C@@H](c2nc(-c3ccc(C(=O)Nc4ccccn4)cc3)c3c(C)ncc(C)n23)C1` [Example 184, (R)-4-(3-(1-acryloylpiperidin-3-yl)-5,8-dimethylimidazo [1,5-a]pyrazin-1-yl)-N-(pyridin-2-yl)benzamide], the IC50 was less than 10 nM.
In the case of `C=CC(=O)N1CCC[C@H]1c1nc(-c2ccc(C(=O)Nc3ccccn3)cc2)c2c(C3CC3)nccn12` [Example 190, (S)-4-(3-(1-acryloylpyrrolidin-2-yl)-8-cyclopropylimidazo [1,5-a]pyrazin-l-yl)-N-(pyridin-2-yl)benzamide] it was more than 10000 nM.
On to `C=CC(=O)N1CCCC[C@H]1c1nc(-c2ccc(C(=O)Nc3ccccn3)cc2)c2c(C3CC3)nccn12` [Example 191, (S)-4-(3-(1-acryloylpiperidin-2-yl)-8-cyclopropylimidazo [1,5-a]pyrazin-1-yl)-N-(pyridin-2-yl)benzamide], for which the IC50 was more than 10000 nM.
With `CC#CC(=O)N1CCCC[C@H]1c1nc(-c2ccc(C(=O)Nc3ccccn3)cc2)c2c(C3CC3)nccn12` [Example 192, (S)-4-(3-(1-(but-2-ynoyl)piperidin-2-yl)-8-cyclopropylimidazo[1,5-a]pyrazin-1-yl)-N-(pyridin-2-yl)benzamide], the IC50 was more than 10000 nM.
For `C=CC(=O)N1CC[C@@H](c2nc(-c3ccc(C(=O)Nc4ccccn4)cc3)c3cncc(OCC)n23)C1` [Example 194, (R)-4-(3-(1-acryloylpyrrolidin-3-yl)-5-ethoxyimidazo [1,5-a]pyrazin-1-yl)-N-(pyridin-2-yl)benzamide], the IC50 is less than 10 nM.
With `C=CC(=O)N1CCCC[C@H]1c1nc(-c2ccc(C(=O)Nc3ccccn3)cc2)c2c(C(F)(F)F)nccn12` [Example 199, (S)-4-(3-(1-acryloylpiperidin-2-yl)-8-(trifluoromethyl)imidazo[1,5-a]pyrazin-1-yl)-N-(pyridin-2-yl)benzamide], the IC50 is more than 10000 nM.
For `CC#CC(=O)N1CCCC[C@H]1c1nc(-c2ccc(C(=O)Nc3ccccn3)cc2)c2c(C(F)(F)F)nccn12` [Example 200, (S)-4-(3-(1-(but-2-ynoyl)piperidin-2-yl)-8-(trifluoromethyl)imidazo [1,5-a]pyrazin-1-yl)-N-(pyridin-2-yl)benzamide], the IC50 is more than 10000 nM.
`CC#CC(=O)N1CCCC[C@H]1c1nc(-c2ccc(C(=O)Nc3cc(C(F)(F)F)ccn3)cc2)c2c(C(F)(F)F)nccn12` [Example 202, (S)-4-(3-(1-(but-2-ynoyl)piperidin-2-yl)-8-(trifluoromethyl)imidazo [1,5-a]pyrazin-1-yl)-N-(4-(trifluoromethyl)pyridin-2-yl)benzamide]: the IC50 is more than 10000 nM.
In the case of `C=CC(=O)N1CC[C@@H](c2nc(-c3ccc(C(=O)Nc4ccccn4)cc3)c3c(C)ncc(OCC)n23)C1` [Example 206, (R)-4-(3-(1-acryloylpyrrolidin-3-yl)-5-ethoxy-8-methylimidazo[1,5-a]pyrazin-1-yl)-N-(pyridin-2-yl)benzamide] it was less than 10 nM.
Take `CN(C)C(=O)N1CCCC[C@H]1c1nc(-c2ccc(C(=O)Nc3ccccn3)cc2)c2c(C(F)(F)F)nccn12` [Example 215, (S)-N,N-dimethyl-2-(1-(4-(pyridin-2-ylcarbamoyl)phenyl)-8-(trifluoromethyl)imidazo [1,5-a]pyrazin-3-yl) piperidine-1-carboxamide]: the IC50 was more than 10000 nM.
